This note sets out measurements from US20230203060A1 (GENFLEET THERAPEUTICS (SHANGHAI) INC., priority 2020, published 2023).

Counter-ions that a name gives are not always drawn.

The first assay has as its system phosphorylated ERK downstream of KRAS G12C in MIA PaCa2 cells. The experiment in a line: Cell p-ERK detection experiment (HTRF) in MIA PaCa2. It counts as cell-based, human. The conditions noted are these: Homo sapiens, MIA PaCa-2, 2 h, MIA PaCa2 cells, 2 hours with compound, Advance ERK phospho-T202/Y204 HTRF kit; read-out: p-ERK IC50. The essentials: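 KRAS G12C-mutant MIA PaCa2 cells (2.5E4 per well, overnight) exposed 2 h to a 3.16-fold compound dilution series at 0.1% DMSO. Lysates probed 4 h with HTRF antibodies to ERK phospho-T202/Y204; inhibition versus DMSO control and blank, IC50 by four-parameter fit.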
In general terms: TR-FRET usually uses a lanthanide donor and a delayed reading to cut background.
For the molecule `C=CC(=O)N1CCN2C(=O)c3c(N4C[C@@H](O)CC4(C)C)nc(-c4c(O)cccc4F)c(Cl)c3OC[C@H]2C1` (single isomer, unassigned) [Z81], the IC50 came to 13 nM.
Same read-out and setting: the same measure for `C=CC(=O)N1CCN2C(=O)c3c(N4C[C@H](O)CC4(C)C)nc(-c4c(O)cccc4F)c(Cl)c3OC[C@H]2C1` (single isomer, unassigned) [Z82]: 136 nM; for `C=CC(=O)N1CCN2C(=O)c3c(N4CC(N(C)C5COC5)CC4(C)C)nc(-c4c(O)cccc4F)c(Cl)c3OC[C@H]2C1` (single isomer, unassigned) [Z331-1]: 6 nM; for `C=CC(=O)N1CCN2C(=O)c3c(N4C[C@H](NC)CC4(C)C)nc(-c4ccccc4F)c(Cl)c3OC[C@H]2C1` (single isomer, unassigned) [Z661-2]: 538 nM.
Same read-out and setting: the same measure for `C=CC(=O)N1CCN2C(=O)c3c(Nc4c(C)ccnc4C(C)C)nc(-c4c(O)cccc4F)c(Cl)c3OC[C@H]2C1` [Z5, (6aR)-8-acryloyl-4-chloro-3-(2-fluoro-6-hydroxyphenyl)-1-((2-isopropyl-4-methylpyridin-3-yl)amino)-6,6a,7,8,9,10-hexahydro-12H-pyrazino[2,1-c]pyrido[3,4-f][1,4]oxazepin-12-one]: 163 nM.
Still for that read-out and setting: the same measure for `C=CC(=O)N1CCN2C(=O)c3c(N(C)c4c(C)ccnc4C(C)C)nc(-c4c(O)cccc4F)c(Cl)c3OC[C@H]2C1` [Z6, (6aR)-8-acryloyl-4-chloro-3-(2-fluoro-6-hydroxyphenyl)-1-((2-isopropyl-4-methylpyridin-3-yl)(methyl)amino)-6,6a,7,8,9,10-hexahydro-12H-pyrazino[2,1-c]pyrido[3,4-f][1,4]oxazepin-12-one]: 128 nM; for `C=CC(=O)N1CCN2C(=O)c3c(N4CCOC5(CC5)C4)nc(-c4c(O)cccc4F)c(Cl)c3OC[C@H]2C1` [Z63, (6aR)-8-acryloyl-4-chloro-1-(4-oxa-7-azaspiro[2.5]octan-7-yl)-3-(2-fluoro-6-hydroxyphenyl)-6,6a,7,8,9,10-hexahydro-12H-pyrazino[2,1-c]pyrido[3,4-f][1,4]oxazepin-12-one]: 154 nM; for `C=CC(=O)N1CCN2C(=O)c3c(N4CC[C@@H]4C)nc(-c4c(O)cccc4F)c(Cl)c3OC[C@H]2C1` [Z68, (6aR)-8-acryloyl-1-((S)-2-methylazetidin-1-yl)-4-chloro-3-(2-fluoro-6-hydroxyphenyl)-6,6a,7,8,9,10-hexahydro-12H-pyrazino[2,1-c]pyrido[3,4-f][1,4]oxazepin-12-one]: 88 nM.
Take `C=CC(=O)N1CCN2C(=O)c3c(NC(C)(C)C)nc(-c4c(O)cccc4F)c(Cl)c3OC[C@H]2C1` [Z69, (6aR)-8-acryloyl-1-(tert-butylamino)-4-chloro-3-(2-fluoro-6-hydroxyphenyl)-6,6a,7,8,9,10-hexahydro-12H-pyrazino[2,1-c]pyrido[3,4-f][1,4]oxazepin-12-one]: the IC50 turned out to be 79 nM.
Same read-out and setting: then `C=CC(=O)N1CCN2C(=O)c3c(N4CC(=O)N(C)CC4C)nc(-c4c(O)cccc4F)c(Cl)c3OC[C@H]2C1` (stereo partly drawn) [Z221, (6aR)-8-acryloyl-4-chloro-1-(2,4-dimethyl-5-oxopiperazin-1-yl)-3-(2-fluoro-6-hydroxyphenyl)-6,6a,7,8,9,10-hexahydro-12H-pyrazino[2,1-c]pyrido[3,4-f][1,4]oxazepin-12-one], with 23 nM.
As for `C=CC(=O)N1CCN2C(=O)c3c(N4CCN(C)[C@H](C)C4)nc(-c4c(O)cccc4F)c(Cl)c3OC[C@H]2C1` [Z235, (6aR)-8-acryloyl-4-chloro-1-((R)-3,4-dimethylpiperazin-1-yl)-3-(2-fluoro-6-hydroxyphenyl)-6,6a,7,8,9,10-hexahydro-12H-pyrazino[2,1-c]pyrido[3,4-f][1,4]oxazepin-12-one], the IC50 came out at 138 nM.
Same read-out and setting: then `C=CC(=O)N1CCN2C(=O)c3c(N4CC(O)CC4(C)C)nc(-c4c(O)cccc4F)c(F)c3OC[C@H]2C1` (stereo partly drawn) [Z256, (6aR)-8-acryloyl-4-fluoro-3-(2-fluoro-6-hydroxyphenyl)-1-(4-hydroxy-2,2-dimethylpyrrolidin-1-yl)-6,6a,7,8,9,10-hexahydro-12H-pyrazino[2,1-c]pyrido[3,4-f][1,4]oxazepin-12-one], with 43 nM.
Consider `C=CC(=O)N1CCN2C(=O)c3c(N4CCN(CCO)C[C@@H]4C)nc(-c4c(O)cccc4F)c(Cl)c3OC[C@H]2C1` [Z257, (6aR)-8-acryloyl-4-chloro-3-(2-fluoro-6-hydroxyphenyl)-1-((S)-4-(2-hydroxyethyl)-2-methylpiperazin-1-yl)-6,6a,7 ,8,9,10-hexahydro-12H-pyrazino[2,1-c]pyrido[3,4-f][1,4]oxazepin-12-one], for which the IC50 worked out at 104 nM.
On the same count and under the same terms, the same measure for `C=CC(=O)N1CCN2C(=O)c3c(N4C[C@H](O)C[C@@H]4C)nc(-c4c(O)cccc4F)c(Cl)c3OC[C@H]2C1` [Z259, (6aR)-8-acryloyl-4-chloro-3-(2-fluoro-6-hydroxyphenyl)-1-((2S,4R)-4-hydroxy-2-methylpyrrolidin-1-yl)-6,6a,7,8,9,10-hexahydro-12H-pyrazino[2,1-c]pyrido[3,4-f][1,4]oxazepin-12-one]: 195 nM; for `C=CC(=O)N1CCN2C(=O)c3c(N4C[C@@H](O)C[C@@H]4C)nc(-c4c(O)cccc4F)c(Cl)c3OC[C@H]2C1` [Z260, (6aR)-8-acryloyl-4-chloro-3-(2-fluoro-6-hydroxyphenyl)-1-((2S,4S)-4-hydroxy-2-methylpyrrolidin-1-yl)-6,6a,7,8,9,10-hexahydro-12H-pyrazino[2,1-c]pyrido[3,4-f][1,4]oxazepin-12-one]: 91 nM; for `C=CC(=O)N1CCN2C(=O)c3c(N4CCN(C)C(C)(C)C4)nc(-c4c(O)cccc4F)c(Cl)c3OC[C@H]2C1` [Z261, (6aR)-8-acryloyl-4-chloro-3-(2-fluoro-6-hydroxyphenyl)-1-(3,3,4-trimethylpiperazin-1-yl)-6,6a,7,8,9,10-hexahydro-12H-pyrazino[2,1-c]pyrido[3,4-f][1,4]oxazepin-12-one]: 59 nM.

The assay is the same for the next values; noted with them: Homo sapiens, MIA PaCa-2, 2 h, read-out: p-ERK IC50.
Consider `C=CC(=O)N1CCN2C(=O)c3c(N4CCN(CC)C[C@@H]4C)nc(-c4c(O)cccc4F)c(Cl)c3OC[C@H]2C1` [Z236], for which the IC50 came out at 25 nM.
Still for that read-out and setting: the same measure for `C=CC(=O)N1CCN2C(=O)c3c(N4CCN(C)C(C)(C)C4)nc(-c4ccccc4F)c(Cl)c3OC[C@H]2C1` [Z463, (R)-8-acryloyl-4-chloro-3-(2-fluorophenyl)-1-(3,3,4-trimethylpiperazin-1-yl)-6,6a,7,8,9,10-hexahydro-12H-pyrazino[2,1-c]pyrido[3,4-f][1,4]oxazepin-12-one, formate]: 271 nM.

Still in this assay, the particulars now being: MIA PaCa2 cells, 2 hours with compound, Advance ERK phospho-T202/Y204 HTRF kit; read-out: p-ERK IC50.
For the molecule `C=CC(=O)N1CCN2C(=O)c3c(N4CC(=O)N(C)CC4C)nc(-c4c(O)cccc4F)c(Cl)c3OC[C@H]2C1` (single isomer, unassigned) [Z221-1], the IC50 came to 19 nM.
On the same count and under the same terms, then `C=CC(=O)N1CCN2C(=O)c3c(N4CC(=O)N(C)CC4C)nc(-c4c(O)cccc4F)c(Cl)c3OC[C@H]2C1` (single isomer, unassigned) [Z221-2], with 173 nM.
On the same count and under the same terms, the same measure for `C=CC(=O)N1CCN2C(=O)c3c(N4CC(N(C)C5COC5)CC4(C)C)nc(-c4c(O)cccc4F)c(Cl)c3OC[C@H]2C1` (single isomer, unassigned) [Z331-2]: 7 nM; for `C=CC(=O)N1CCN2C(=O)c3c(N4CCN(C)C[C@@H]4C)nc(-c4c(O)cccc4Cl)c(Cl)c3OC[C@H]2C1` (single isomer, unassigned) [Z455-1]: 479 nM; for `C=CC(=O)N1CCN2C(=O)c3c(N4CCN(C)C[C@@H]4C)nc(-c4c(O)cccc4Cl)c(Cl)c3OC[C@H]2C1` (single isomer, unassigned) [Z455-2]: 33 nM.
In the case of `C=CC(=O)N1CCN2C(=O)c3c(N4CC(N5CCOCC5)CC4(C)C)nc(-c4ccccc4F)c(Cl)c3OC[C@H]2C1` (single isomer, unassigned) [Z468-2], the IC50 was determined as 61 nM.
On the same count and under the same terms, then `C=CC(=O)N1CCN2C(=O)c3c(N4C[C@H](N(C)C)CC4(C)C)nc(-c4ccccc4)c(Cl)c3OC[C@H]2C1` (single isomer, unassigned) [Z655-2], with 196 nM.
Same read-out and setting: then `C=CC(=O)N1CCN2C(=O)c3c(N4C[C@H](N(C)CCF)CC4(C)C)nc(-c4ccccc4F)c(Cl)c3OC[C@H]2C1` (single isomer, unassigned) [Z660-2], with 91 nM; and `C=CC(=O)N1CCN2C(=O)c3c(N4CCN(C)C(C)C4C)nc(-c4c(O)cccc4F)c(Cl)c3OC[C@H]2C1` (stereo partly drawn) [Z308a, (6aR)-8-acryloyl-4-chloro-3-(2-fluoro-6-hydroxyphenyl)-1-(2,3,4-trimethylpiperazin-1-yl)-6,6a,7,8,9,10-hexahydro-12H-pyrazino[2,1-c]pyrido[3,4-f][1,4]oxazepin-12-one], with 21 nM.
With `C=CC(=O)N1CCN2C(=O)c3c(C4NCCN5C(=O)CCC45C)nc(-c4c(O)cccc4F)c(Cl)c3OC[C@H]2C1` (stereo partly drawn) [Z337, (6aR)-8-acryloyl-4-chloro-3-(2-fluoro-6-hydroxyphenyl)-1-(8a-methylhexahydropyrrolo[1,2-a]pyrazin-6 (2H)-one-1-yl)-6,6a,7,8,9,10-hexahydro-12H-pyrazino[2,1-c]pyrido[3,4-f][1,4]oxazepin-12-one], the IC50 is 154 nM.
On the same count and under the same terms, then `C=CC(=O)N1CCN2C(=O)c3c(N4CC(N(C)CC(F)F)CC4(C)C)nc(-c4ccccc4F)c(Cl)c3OC[C@H]2C1` (some centres unmarked) [Z659], with 26 nM.

In general, IC50 refers to the point on the concentration scale where inhibition reaches its midpoint.
